Data from PubChem BioAssay AID248 (DTP/NCI, 2004).
Values joined by “and” are separate entries in the source; they are usually repeats but may differ in a detail not shown here. Identical values can stand only once. Inconclusive results and toxic doses are left out. No stated cut-off is given here; in the data, active means T/C of 150% or more; inactive means T/C below 125%.

System: L1210 leukemia ip in BDF1 mice, survival T/C
Assay: NCI In Vivo Anticancer Drug Screen. Data for tumor model L1210 Leukemia (intraperitoneal) in B6D2F1 (BDF1) mice
Settings: endpoint: mean survival time, higher = longer survival
Method in brief: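 Value reflects the ratio of survival in compound-treated mice to survival in vehicle-treated controls, with both groups carrying the same transplanted tumor.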

[1] = dose: 100.0 mg/kg/injection, schedule: Q01DX001 (ip), vehicle: saline
[2] = dose: 100.0 mg/kg/injection, schedule: Q04DX003 (ip), vehicle: saline with Tween-80
[3] = dose: 200.0 mg/kg/injection, schedule: Q04DX003 (ip), vehicle: saline with Tween-80
[4] = dose: 400.0 mg/kg/injection, schedule: Q04DX002 (ip), vehicle: saline with Tween-80
[5] = dose: 400.0 mg/kg/injection, schedule: Q04DX003 (ip), vehicle: saline with Tween-80
[6] = dose: 100.0 mg/kg/injection, schedule: Q01DX001 (ip), vehicle: carboxymethylcellulose (CMC)
[7] = dose: 200.0 mg/kg/injection, schedule: Q01DX001 (ip), vehicle: carboxymethylcellulose (CMC)
[8] = dose: 400.0 mg/kg/injection, schedule: Q01DX001 (ip), vehicle: carboxymethylcellulose (CMC)
[9] = dose: 100.0 mg/kg/injection, schedule: Q04DX002 (ip), vehicle: Klucel (hydroxypropylcellulose) (HPC)
[10] = dose: 200.0 mg/kg/injection, schedule: Q04DX002 (ip), vehicle: Klucel (hydroxypropylcellulose) (HPC)
[11] = dose: 100.0 mg/kg/injection, schedule: Q01DX001 (ip), vehicle: saline with Tween-80
[12] = dose: 400.0 mg/kg/injection, schedule: Q01DX001 (ip), vehicle: saline with Tween-80
[13] = dose: 75.0 mg/kg/injection, schedule: Q01DX001 (ip), vehicle: saline
[14] = dose: 150.0 mg/kg/injection, schedule: Q01DX001 (ip), vehicle: saline
[15] = dose: 100.0 mg/kg/injection, schedule: Q04DX002 (ip), vehicle: saline with Tween-80
[16] = dose: 200.0 mg/kg/injection, schedule: Q04DX002 (ip), vehicle: saline with Tween-80

Measured: T/C

C1CCC2[N-]CC3CCCCC3[N-]CC3CCCCC3[N-]CC3CCCCC3[N-]CC2C1.[Cu] (centres undefined)
inactive: dose: 20.0 mg/kg/injection, schedule: Q01DX001 (ip), vehicle: Klucel (hydroxypropylcellulose) (HPC) 110 % of control | dose: 40.0 mg/kg/injection, schedule: Q01DX001 (ip), vehicle: Klucel (hydroxypropylcellulose) (HPC) 117 % of control | dose: 100.0 mg/kg/injection, schedule: Q01DX001 (ip), vehicle: Klucel (hydroxypropylcellulose) (HPC) 116 % of control

CC1CC2CCCC(O)=C2C(=O)O1 (centres undefined)
inactive: [1] 102 % of control | dose: 200.0 mg/kg/injection, schedule: Q01DX001 (ip), vehicle: saline 102 % of control | dose: 400.0 mg/kg/injection, schedule: Q01DX001 (ip), vehicle: saline 105 % of control

S=C(CC(C(=S)N1CCOCC1)N1CCOCC1)N1CCOCC1 (centres undefined)
inactive: dose: 25.6 mg/kg/injection, schedule: Q04DX002 (ip), vehicle: saline with Tween-80 98 % of control | dose: 64.0 mg/kg/injection, schedule: Q04DX002 (ip), vehicle: saline with Tween-80 102 % of control | [2] 98 % of control | dose: 160.0 mg/kg/injection, schedule: Q04DX002 (ip), vehicle: saline with Tween-80 87 % of control | [3] 104 % of control | [4] 98 % of control | [5] 101 % of control

O=[N+]([O-])c1cc(C(F)(F)F)cc([N+](=O)[O-])c1N/N=C/c1ccc(Cl)cc1
inactive: dose: 12.5 mg/kg/injection, schedule: Q01DX009 (ip), vehicle: carboxymethylcellulose (CMC) 95 % of control and 102 % of control | dose: 25.0 mg/kg/injection, schedule: Q01DX009 (ip), vehicle: carboxymethylcellulose (CMC) 97 % of control and 88 % of control | [6] 100 % of control and 103 % of control | dose: 100.0 mg/kg/injection, schedule: Q04DX002 (ip), vehicle: carboxymethylcellulose (CMC) 100 % of control and 105 % of control | dose: 100.0 mg/kg/injection, schedule: Q04DX003 (ip), vehicle: carboxymethylcellulose (CMC) 92 % of control and 101 % of control | [7] 103 % of control and 91 % of control | dose: 200.0 mg/kg/injection, schedule: Q04DX002 (ip), vehicle: carboxymethylcellulose (CMC) 98 % of control and 90 % of control | dose: 200.0 mg/kg/injection, schedule: Q04DX003 (ip), vehicle: carboxymethylcellulose (CMC) 94 % of control and 96 % of control | [8] 103 % of control and 105 % of control | dose: 400.0 mg/kg/injection, schedule: Q01DX009 (ip), vehicle: carboxymethylcellulose (CMC) 86 % of control and 90 % of control | dose: 400.0 mg/kg/injection, schedule: Q04DX002 (ip), vehicle: carboxymethylcellulose (CMC) 86 % of control and 87 % of control | dose: 400.0 mg/kg/injection, schedule: Q04DX003 (ip), vehicle: carboxymethylcellulose (CMC) 92 % of control and 96 % of control

O=c1[nH]cc(COCC(F)(F)C(F)F)c(=O)[nH]1
inactive: dose: 50.0 mg/kg/injection, schedule: Q01DX005 (ip), vehicle: other 101 % of control | dose: 100.0 mg/kg/injection, schedule: Q01DX005 (ip), vehicle: other 104 % of control | dose: 200.0 mg/kg/injection, schedule: Q01DX005 (ip), vehicle: other 95 % of control | dose: 400.0 mg/kg/injection, schedule: Q01DX005 (ip), vehicle: other 95 % of control

CCCOC(C(=O)OC1CCN(C)CC1)(c1ccccc1)c1ccccc1
inactive: dose: 12.5 mg/kg/injection, schedule: Q01DX009 (ip), vehicle: saline 98 % of control | dose: 25.0 mg/kg/injection, schedule: Q01DX009 (ip), vehicle: saline 102 % of control | dose: 50.0 mg/kg/injection, schedule: Q01DX009 (ip), vehicle: saline 94 % of control

O=C(O)c1ccc(/C=N\Nc2ccccc2)cc1
inactive: dose: 50.0 mg/kg/injection, schedule: Q04DX003 (ip), vehicle: Klucel (hydroxypropylcellulose) (HPC) 95 % of control | dose: 100.0 mg/kg/injection, schedule: Q04DX003 (ip), vehicle: Klucel (hydroxypropylcellulose) (HPC) 106 % of control | dose: 200.0 mg/kg/injection, schedule: Q04DX003 (ip), vehicle: Klucel (hydroxypropylcellulose) (HPC) 100 % of control | dose: 400.0 mg/kg/injection, schedule: Q04DX003 (ip), vehicle: Klucel (hydroxypropylcellulose) (HPC) 97 % of control

O=C(Nc1ccc(F)cc1)c1ccccc1Cl
inactive: dose: 100.0 mg/kg/injection, schedule: Q01DX009 (ip), vehicle: acetone 98 % of control | dose: 200.0 mg/kg/injection, schedule: Q01DX009 (ip), vehicle: acetone 102 % of control | dose: 400.0 mg/kg/injection, schedule: Q01DX009 (ip), vehicle: acetone 102 % of control

CCc1cc2oc(C)c(C)c2c2nc(C)oc12
inactive: dose: 50.0 mg/kg/injection, schedule: Q04DX002 (ip), vehicle: Klucel (hydroxypropylcellulose) (HPC) 101 % of control | [9] 99 % of control and 104 % of control | [10] 101 % of control | dose: 400.0 mg/kg/injection, schedule: Q04DX002 (ip), vehicle: Klucel (hydroxypropylcellulose) (HPC) 96 % of control

O=C1NC(=O)/C(=C\c2ccc(OCc3ccccc3)c(OCc3ccccc3)c2)N1
inactive: [11] 88 % of control | [12] 96 % of control

Cc1cccc(C(=O)NO)c1O
inactive: [13] 101 % of control | [14] 98 % of control

CC(=N\N=C(N)N)/C(C)=N/N=C(N)N
inactive: [13] 101 % of control | [14] 98 % of control

O=[N+]([O-])/C=C\c1cccc(OCc2ccccc2)c1
inactive: dose: 50.0 mg/kg/injection, schedule: Q01DX001 (ip), vehicle: carboxymethylcellulose (CMC) 101 % of control | [6] 103 % of control | [7] 92 % of control | [8] 97 % of control

O=c1cc(NCc2cccc(Cl)c2)[nH]c(=O)[nH]1
inactive: [11] 91 % of control | dose: 200.0 mg/kg/injection, schedule: Q01DX001 (ip), vehicle: saline with Tween-80 86 % of control | [12] 89 % of control

O=C(Nc1ccc([N+](=O)[O-])cc1Cl)c1cc(Cl)ccc1O
inactive: dose: 50.0 mg/kg/injection, schedule: Q01DX009 (ip), vehicle: Klucel (hydroxypropylcellulose) (HPC) 101 % of control | dose: 100.0 mg/kg/injection, schedule: Q01DX009 (ip), vehicle: Klucel (hydroxypropylcellulose) (HPC) 104 % of control | [9] 91 % of control | dose: 200.0 mg/kg/injection, schedule: Q01DX009 (ip), vehicle: Klucel (hydroxypropylcellulose) (HPC) 101 % of control | [10] 94 % of control

CCCCc1ccccn1
inactive: [1] 96 % of control

CC(C)(C)C1CCC(C(=O)O)CC1 (centres undefined)
inactive: dose: 50.0 mg/kg/injection, schedule: Q01DX009 (ip), vehicle: gum acacia 102 % of control | dose: 100.0 mg/kg/injection, schedule: Q01DX009 (ip), vehicle: gum acacia 103 % of control | dose: 100.0 mg/kg/injection, schedule: Q01DX009 (ip), vehicle: saline with Tween-80 95 % of control and 97 % of control | dose: 100.0 mg/kg/injection, schedule: Q04DX002 (ip), vehicle: gum acacia 100 % of control | dose: 100.0 mg/kg/injection, schedule: Q04DX003 (ip), vehicle: gum acacia 106 % of control | [2] 102 % of control and 89 % of control | dose: 200.0 mg/kg/injection, schedule: Q01DX009 (ip), vehicle: gum acacia 105 % of control | dose: 200.0 mg/kg/injection, schedule: Q01DX009 (ip), vehicle: saline with Tween-80 94 % of control and 97 % of control | dose: 200.0 mg/kg/injection, schedule: Q04DX002 (ip), vehicle: gum acacia 110 % of control | dose: 200.0 mg/kg/injection, schedule: Q04DX003 (ip), vehicle: gum acacia 106 % of control | [3] 100 % of control and 94 % of control | dose: 400.0 mg/kg/injection, schedule: Q01DX009 (ip), vehicle: saline with Tween-80 97 % of control | dose: 400.0 mg/kg/injection, schedule: Q04DX002 (ip), vehicle: gum acacia 110 % of control | [5] 89 % of control

Cc1cc(C)c(C[N+](C)(C)C)c(C)c1
inactive: dose: 50.0 mg/kg/injection, schedule: Q01DX001 (ip), vehicle: saline 108 % of control | [1] 104 % of control

CCOCCOCCOC(C)Oc1ccc(Cl)cc1C (centres undefined)
inactive: [15] 123 % of control | [16] 100 % of control | [4] 103 % of control

CCCCCCCCCCCCC(=O)O
inactive: [15] 98 % of control | [16] 98 % of control | [4] 105 % of control
